From patent US20250171431A1, “HETEROCYCLIC INHIBITORS OF IGF-1R FOR TREATMENT OF DISEASE” (HORIZON THERAPEUTICS IRELAND DAC, priority 2023, published 2025)

Target: IGF-1R (Homo sapiens (Human), UniProt P08069)
Test: Example B-1: IGF-1R Assay (PC3 cells, IGF1 stimulation, AlphaLISA)
Format: cell-based
Details: 200 ng/mL IGF1 stimulation, read-out: Biological Activity against IGF-1R IC50
Outline: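 PC3 cells were serum-starved 2 h, treated with serially diluted compounds for 2 h, then stimulated with IGF1 (200 ng/mL final) for 30 min. Lysates were read by AlphaLISA; % inhibition was calculated relative to vehicle and EC80 controls, with IC50 values binned into ranges.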

Chain of IGF-1R (P08069 31-1367): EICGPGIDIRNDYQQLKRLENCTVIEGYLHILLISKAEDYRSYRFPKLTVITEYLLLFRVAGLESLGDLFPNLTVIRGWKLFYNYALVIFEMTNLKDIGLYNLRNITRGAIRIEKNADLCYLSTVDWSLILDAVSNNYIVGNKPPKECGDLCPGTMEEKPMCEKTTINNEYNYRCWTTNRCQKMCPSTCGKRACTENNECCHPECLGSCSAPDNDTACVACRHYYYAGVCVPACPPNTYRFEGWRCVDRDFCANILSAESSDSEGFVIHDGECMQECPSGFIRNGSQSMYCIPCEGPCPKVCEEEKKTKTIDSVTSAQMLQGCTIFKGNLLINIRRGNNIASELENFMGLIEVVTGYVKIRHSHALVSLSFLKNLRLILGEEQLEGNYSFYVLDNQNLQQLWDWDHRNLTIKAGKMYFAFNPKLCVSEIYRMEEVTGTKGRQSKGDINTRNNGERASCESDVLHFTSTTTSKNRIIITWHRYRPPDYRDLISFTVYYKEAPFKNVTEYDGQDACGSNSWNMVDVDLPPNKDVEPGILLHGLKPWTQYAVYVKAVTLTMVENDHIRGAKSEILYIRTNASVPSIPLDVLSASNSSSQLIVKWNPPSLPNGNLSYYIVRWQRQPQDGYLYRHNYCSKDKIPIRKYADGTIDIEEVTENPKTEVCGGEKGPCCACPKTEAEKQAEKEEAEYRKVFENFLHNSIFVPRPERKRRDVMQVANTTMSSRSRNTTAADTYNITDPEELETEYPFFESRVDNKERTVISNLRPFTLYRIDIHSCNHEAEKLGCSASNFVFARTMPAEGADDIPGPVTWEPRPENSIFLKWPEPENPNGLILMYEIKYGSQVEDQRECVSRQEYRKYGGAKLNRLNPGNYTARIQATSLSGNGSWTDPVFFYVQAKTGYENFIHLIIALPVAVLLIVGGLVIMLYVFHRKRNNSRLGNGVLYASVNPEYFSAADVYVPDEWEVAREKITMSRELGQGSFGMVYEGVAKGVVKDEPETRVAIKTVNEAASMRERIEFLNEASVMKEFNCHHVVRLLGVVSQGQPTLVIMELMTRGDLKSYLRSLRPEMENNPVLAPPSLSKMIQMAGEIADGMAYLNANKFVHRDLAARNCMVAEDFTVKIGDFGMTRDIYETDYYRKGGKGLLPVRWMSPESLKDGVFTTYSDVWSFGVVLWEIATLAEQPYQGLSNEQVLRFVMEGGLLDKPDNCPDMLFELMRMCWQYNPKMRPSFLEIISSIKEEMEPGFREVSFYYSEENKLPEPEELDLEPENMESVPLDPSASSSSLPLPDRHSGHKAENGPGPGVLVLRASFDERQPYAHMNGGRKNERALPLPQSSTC

IC50, ≤ 500 nM:
COc1cc(Nc2nccc(Nc3cnc4c(c3)CCCC4)n2)ccc1O[C@H]1C[C@@H](N(C)C)C1 [Compound 364, 2-{3-methoxy-4-[(1s,3s)-3-(dimethylamino)cyclobutoxy]phenylamino}-4-(5,6,7,8-tetrahydro-3-quinolylamino)pyrimidine]
COc1cc(Nc2nccc(Nc3cnc4c(c3)CCCO4)n2)ccc1O[C@H]1C[C@@H](N(C)C)C1 [Compound 365, 4-(3,4-dihydro-2H-1-oxa-8-azanaphth-6-ylamino)-2-{3-methoxy-4-[(1s,3s)-3-(dimethylamino)cyclobutoxy]phenylamino}pyrimidine]
COc1cc(Nc2nccc(Nc3cnc4c(c3)SCCC4)n2)ccc1O[C@H]1C[C@@H](N(C)C)C1 [Compound 366, 4-(3,4-dihydro-2H-1-thia-5-azanaphth-7-ylamino)-2-{3-methoxy-4-[(1s,3s)-3-(dimethylamino)cyclobutoxy]phenylamino}pyrimidine]
CN(C)[C@H]1C[C@@H](Oc2ccc(Nc3nccc(Nc4cnc5ccccc5c4)n3)cc2)C1 [Compound 367, 4-(3-quinolylamino)-2-{p-[(1s,3s)-3-(dimethylamino)cyclobutoxy]phenylamino}pyrimidine]
COc1cc(Nc2nccc(Nc3cnc4ccccc4c3)n2)ccc1O[C@H]1C[C@H](N(C)C)C1 [Compound 369, 2-{3-methoxy-4-[(1r,3r)-3-(dimethylamino)cyclobutoxy]phenylamino}-4-(3-quinolylamino)pyrimidine]
COc1cc(Nc2nccc(Nc3cnc4c(c3)CCCC43CCCC3)n2)ccc1OCCCN1CCCCC1 [Compound 370, 4-(6′,7′-dihydro-5′H-spiro[cyclopentane-1,8′-quinolin]-3′-ylamino)-2-[3-methoxy-4-(3-piperidinopropoxy)phenylamino] pyrimidine]
O=S1(=O)CCN(CCCOc2ccc(Nc3nccc(Nc4cnc5c(c4)C4CCC5C4)n3)cc2)CC1 (stereo not shown) [Compound 371, 4-[3-(p-{4-(3-azatricyclo[6.2.1.0^2,7]undeca-2,4,6-trien-5-ylamino)-2-pyrimidinylamino}phenoxy)propyl]-1λ^6,4-thiazinane-1,1-dione]
c1cc(Nc2cnc3c(c2)C2CCC3C2)nc(Nc2ccc(OCCCN3CCOCC3)cc2)n1 (stereo not shown) [Compound 372, 4-(3-azatricyclo[6.2.1.0^2,7]undeca-2,4,6-trien-5-ylamino)-2-[p-(3-morpholinopropoxy)phenylamino]pyrimidine]
c1cc(Nc2cnc3c(c2)C2CCC3CC2)nc(Nc2ccc(OCCCN3CCOCC3)cc2)n1 [Compound 373, 4-(3-azatricyclo[6.2.2.0^2,7]dodeca-2,4,6-trien-5-ylamino)-2-[p-(3-morpholinopropoxy)phenylamino] pyrimidine]
COc1cc(Nc2nccc(Nc3cnc4c(c3)CCCC4)n2)ccc1OCCCN1CCCCC1 [Compound 374, 2-[3-methoxy-4-(3-piperidinopropoxy)phenylamino]-4-(5,6,7,8-tetrahydro-3-quinolylamino)pyrimidine]
COc1cc(Nc2nccc(Nc3cnc4c(c3)CCCO4)n2)ccc1OCCCN1CCCCC1 [Compound 375, 4-(3,4-dihydro-2H-1-oxa-8-azanaphth-6-ylamino)-2-[3-methoxy-4-(3-piperidinopropoxy)phenylamino]pyrimidine]
COc1cc(Nc2nccc(Nc3ccc4c(c3)OCCO4)n2)ccc1OCCCN1CCCCC1 [Compound 376, 4-(2,3-dihydro-1,4-benzodioxin-6-ylamino)-2-[3-methoxy-4-(3-piperidinopropoxy)phenylamino]pyrimidine]
COc1cc(Nc2nccc(Nc3cnc4c(c3)CSCC4)n2)ccc1OCCCN1CCCCC1 [Compound 377, 4-(7,8-dihydro-5H-6-thia-1-azanaphth-3-ylamino)-2-[3-methoxy-4-(3-piperidinopropoxy)phenylamino]pyrimidine]
